What was measured:
[1] = test system: fibroblasts obtained from human skin tissue; assay: MTT cytotoxicity assay, human fibroblasts; details: 24 hours
Experimental: (§1) The cytotoxicity of carnitine-salicylate (CA-SA) was evaluated by 3-(4,5-dimethythiazol-2-yl)-2,5-diphenyl tetrazolium bromide (MTT) assay. […] After removing the medium and adding each sample to a medium without FBS and incubating for 24 hours, the medium was removed, an MTT solution was added at a concentration of […], and reacted at 37° C. for 3 hours. The unreacted MTT solution was removed, and 100 μl of DMSO was added to dissolve the formed reaction product, and then absorbance was measured at 540 nm to confirm the cytotoxicity.
(§2) The cytotoxicity of salicylate, carnitine, and carnitine-salicylate (CA-SA) was evaluated by treating Raw 264.7 cells, which are rat macrophages, and human fibroblasts with the material. As a Raw 264.7 cell is a representative cell used to measure NO inhibitory efficacy in anti-inflammatory efficacy evaluations, its cytotoxicity was evaluated, and cytotoxicity with respect to fibroblasts was evaluated in order to confirm the toxicity that may be induced when the material is included in cosmetics and be repeatedly applied to the skin.

pig back skin = assay: In vitro exfoliation efficacy (detached keratinocytes from pig back skin); details: 16 hours, n=5
Experimental: The pig back skin surface was washed with phosphate buffer saline (PBS) and then cut to a certain size. Thereafter, the stratum corneum of the pig skin was exposed and placed on a 96-well plate, 100 μl of each sample was applied, and the 96-well plate was left in a constant temperature and humidity chamber for 16 hours. Thereafter, the supernatant of each sample was mixed well with a trypan blue solution in the 96-well plate to measure the number of detached keratinocytes. In order to verify the suitability of the relative dead skin cell control efficacy evaluation method used in this study, the following method was used. […] After treating the pig skin with the sample by the method described above, the number of detached keratinocytes was counted, and the number of detached keratinocytes in PHA (DL-gluconolactone) at pH 4.0 was set to 100% to evaluate the relative exfoliation efficacy. All evaluations were made at n=5 to secure reliability through repeated results.

Raw 264.7 cells [2] = assay: NO production inhibition in LPS-treated Raw 264.7 cells (GRIESS method); type: cell-based, rat; details: LPS 500 ng/ml
Experimental: The anti-inflammatory effect of carnitine-salicylate (CA-SA) was confirmed experimentally.
In order to evaluate the efficacy of relieving inflammation caused by external stimuli in vitro, an experiment was performed by the GRIESS method using Raw 264.7 cells (ATCC number: CRL-2788), which are rat macrophage cell line, to evaluate the inhibition of NO production after treatment with lipopolysaccharide (LPS, Sigma Aldrich, USA). […] After removing the medium and performing starvation with a serum-free medium for 12 hours, the test material was treated at 0.1 to 100 ppm for 30 minutes, and then LPS was added at a concentration of 500 ng/ml and the cells were further cultured for 18 hours. After culturing, the supernatant was taken and transferred to a 96-well plate, GRIESS reagent was added and reacted at room temperature for 15 minutes, and absorbance at 540 nm was measured using an ELISA reader.

Raw 264.7 cells [3] = assay: MTT cytotoxicity assay, Raw 264.7 cells; details: 24 hours
Experimental: as §1, §2

[4] = 2% (mixture 1% + 1%), pH 5.5, relative to 10% gluconolactone pH 4.0 = 100%

With `O=C(O)c1ccccc1O` [SA, salicylate] the cell viability ([1]; 50 ppm) was 94.83%, the cell viability ([1]; 100 ppm) was 85.36% and the “Exfoliation rate (%)” value (pig back skin; [4]) was 19.2%. For the same compound, the NO inhibition rate (Raw 264.7 cells [2]; 10 ppm (mixture 10 ppm + 10 ppm), 18 hours) was 16.4%, the cell viability (Raw 264.7 cells [3]; 50 ppm) was 96.16% and the cell viability (Raw 264.7 cells [3]; 100 ppm) was 79.74%.
`CC(=O)O.CNC(=N)NCCC[C@H](N)C(=O)O` [L-MMMA, NG-monomethyl-L-arginine acetate] was tested, and the NO inhibition rate (Raw 264.7 cells [2]; positive control) was 62.2%.
For `C[N+](C)(C)CC(O)CC(=O)[O-]` (centres unmarked) [CA, 4-trimethylamino-3-hydroxybutyric acid], the “Exfoliation rate (%)” value (pig back skin; [4]) was 55.2% and the inhibition at 10 ppm (Raw 264.7 cells [2]; Mus musculus, RAW264.7, 10 ppm (mixture 10 ppm + 10 ppm), 18 hours, read-out: NO inhibition rate) was 0%.
For `O=C1O[C@H](CO)[C@@H](O)[C@H](O)[C@H]1O` (racemic) [Gloconolactone, DL-gluconolactone], the “Exfoliation rate (%)” value (pig back skin; 10%, pH 4, positive control set to 100%) was 100.0% and the “Exfoliation rate (%)” value (pig back skin; 10%, pH 6, relative to gluconolactone pH 4.0 = 100%) was 32.0%.
